The text below walks through data of US10377753B2, “Substituted 4-azaindoles and their use as GluN2B receptor modulators” (Janssen Pharmaceutica NV, priority 2015, dated 2019).

Each structure is given as a SMILES string. Counter-ions that a name gives are not always drawn.

Sequence of cloned human NR1/NR2B ion channels (Q13224 27-1484, other chains not shown): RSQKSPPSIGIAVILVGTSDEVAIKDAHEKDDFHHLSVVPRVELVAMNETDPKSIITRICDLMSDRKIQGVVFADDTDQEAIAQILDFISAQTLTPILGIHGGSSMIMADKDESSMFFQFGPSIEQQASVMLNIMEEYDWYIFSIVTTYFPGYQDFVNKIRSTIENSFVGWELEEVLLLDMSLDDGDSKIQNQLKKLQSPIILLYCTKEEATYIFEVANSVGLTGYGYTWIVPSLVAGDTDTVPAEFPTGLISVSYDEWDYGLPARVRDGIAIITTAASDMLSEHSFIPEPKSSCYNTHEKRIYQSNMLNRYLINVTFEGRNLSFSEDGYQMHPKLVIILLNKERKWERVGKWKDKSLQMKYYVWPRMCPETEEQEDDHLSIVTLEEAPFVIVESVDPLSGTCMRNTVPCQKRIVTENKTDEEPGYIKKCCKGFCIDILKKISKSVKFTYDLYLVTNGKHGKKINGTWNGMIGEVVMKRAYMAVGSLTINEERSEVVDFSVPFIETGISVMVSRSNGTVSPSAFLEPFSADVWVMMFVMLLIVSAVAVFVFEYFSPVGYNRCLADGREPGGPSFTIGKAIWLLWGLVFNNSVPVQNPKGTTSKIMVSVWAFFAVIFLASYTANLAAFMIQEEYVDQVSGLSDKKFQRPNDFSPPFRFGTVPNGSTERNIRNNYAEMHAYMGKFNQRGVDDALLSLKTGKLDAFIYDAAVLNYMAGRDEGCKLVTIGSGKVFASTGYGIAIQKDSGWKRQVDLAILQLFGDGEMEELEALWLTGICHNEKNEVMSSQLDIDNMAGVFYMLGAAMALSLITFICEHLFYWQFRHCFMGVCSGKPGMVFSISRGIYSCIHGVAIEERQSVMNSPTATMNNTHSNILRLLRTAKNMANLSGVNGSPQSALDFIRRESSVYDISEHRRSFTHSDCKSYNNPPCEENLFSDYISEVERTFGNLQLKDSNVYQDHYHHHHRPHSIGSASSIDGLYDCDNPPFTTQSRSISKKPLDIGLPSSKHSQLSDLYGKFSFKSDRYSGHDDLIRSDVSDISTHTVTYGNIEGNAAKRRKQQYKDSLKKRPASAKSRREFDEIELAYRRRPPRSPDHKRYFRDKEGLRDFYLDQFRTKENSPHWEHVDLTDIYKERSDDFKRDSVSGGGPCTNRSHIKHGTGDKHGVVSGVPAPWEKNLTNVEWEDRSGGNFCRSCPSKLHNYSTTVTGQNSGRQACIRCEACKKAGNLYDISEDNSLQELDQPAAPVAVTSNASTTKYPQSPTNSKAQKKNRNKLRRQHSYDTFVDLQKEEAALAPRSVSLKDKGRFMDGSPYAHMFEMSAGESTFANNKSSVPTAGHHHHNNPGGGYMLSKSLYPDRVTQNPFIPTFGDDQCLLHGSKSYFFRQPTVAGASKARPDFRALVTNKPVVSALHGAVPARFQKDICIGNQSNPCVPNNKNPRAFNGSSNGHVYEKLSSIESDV

This test concerns the target cloned human NR1/NR2B ion channels (Homo sapiens (Human), UniProt Q05586+Q13224). The experiment in a line: HNR2BC: effects of test articles on cloned human NR1/NR2B ion channels expressed in mammalian cells (FLIPR calcium flux). Particulars: cloned human NR1/NR2B, Table 5. Format: cell-based. A digest of the protocol:
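Compounds were added to dye-loaded cells for 5 min with fluorescence monitored for agonism, followed by co-agonists (glutamate ~EC80, glycine 10 μM saturating) for 5 min. Cells stably expressed inducible human NR1/NR2B, and the buffer was pH 7.4. The FLIPR Ca2+ flux signal was normalized against control wells.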
For orientation: Calcium flux is commonly read through the fluorescence of an indicator in the cells.
In general, IC50 refers to the concentration at which inhibition is half-maximal. For the compound `CCCNC(=O)Cn1ccc2ncc(-c3ccc(F)cc3)cc21` [Example 230, 2-[6-(4-Fluorophenyl)pyrrolo[3,2-b]pyridin-1-yl]-N-propyl-acetamide], the IC50 is 5010 nM. In the case of `CC1(NC(=O)Cn2ccc3ncc(-c4ccc(F)cc4)cc32)CC1` [Example 232, 2-[6-(4-Fluorophenyl)pyrrolo[3,2-b]pyridin-1-yl]-N-(1-methylcyclopropyl)acetamide], the IC50 was 10000 nM. `O=C(Cn1ccc2ncc(-c3ccc(F)cc3)cc21)NCCF` [Example 233, N-(2-Fluoroethyl)-2-[6-(4-fluorophenyl)pyrrolo[3,2-b]pyridin-1-yl]acetamide]: the IC50 is 15800 nM. For `CC(C)CNC(=O)Cn1ccc2ncc(-c3ccc(F)cc3)cc21` [Example 234, 2-[6-(4-Fluorophenyl)pyrrolo[3,2-b]pyridin-1-yl]-N-isobutyl-acetamide] the value was 2510 nM. As for `Cc1cc(-c2cnc3ccn(Cc4cnn(C)c4)c3c2)ccc1F` [Example 236, 6-(4-Fluoro-3-methyl-phenyl)-1-[(1-methylpyrazol-4-yl)methyl]pyrrolo[3,2-b]pyridine], the IC50 is 200 nM. For `O=C(Cn1ccc2ncc(-c3ccc(F)cc3)cc21)NCC1CC1` [Example 237, N-(Cyclopropylmethyl)-2-[6-(4-fluorophenyl)pyrrolo[3,2-b]pyridin-1-yl]acetamide], the IC50 was 2000 nM. For the compound `Cc1cc(-c2cnc3ccn(Cc4cn(C)nn4)c3c2)ccc1F` [Example 238, 6-(4-Fluoro-3-methyl-phenyl)-1-[(1-methyltriazol-4-yl)methyl]pyrrolo[3,2-b]pyridine], the IC50 was 3160 nM. Regarding `Cc1noc(Cn2cc(Cl)c3ncc(-c4ccc(F)c(C)c4)cc32)n1` [Example 239, 5-[[3-Chloro-6-(4-fluoro-3-methyl-phenyl)pyrrolo[3,2-b]pyridin-1-yl]methyl]-3-methyl-1,2,4-oxadiazole], the IC50 is 158 nM. For `Cc1cc(-c2cnc3c(Cl)cn(Cc4cnn(C)c4)c3c2)ccc1F` [Example 240, 3-Chloro-6-(4-fluoro-3-methyl-phenyl)-1-[(1-methylpyrazol-4-yl)methyl]pyrrolo[3,2-b]pyridine] the value was 501 nM. In the case of `Cc1cc(-c2cnc3c(Cl)cn(CC(=O)C4CCC4)c3c2)ccc1F` [Example 241, 2-[3-Chloro-6-(4-fluoro-3-methyl-phenyl)pyrrolo[3,2-b]pyridin-1-yl]-1-cyclobutyl-ethanone], the IC50 was 5010 nM. As to `Cc1cc(-c2cnc3ccn(CC(=O)C4CCC4)c3c2)ccc1F` [Example 242, 1-Cyclobutyl-2-[6-(4-fluoro-3-methyl-phenyl)pyrrolo[3,2-b]pyridin-1-yl]ethanone], the IC50 is 794 nM. For `O=C(Cn1cc(Cl)c2ncc(-c3cncc(C(F)(F)F)c3)cc21)N1CCC1` [Example 243, 1-(Azetidin-1-yl)-2-[3-chloro-6-[5-(trifluoromethyl)-3-pyridyl]pyrrolo[3,2-b]pyridin-1-yl]ethanone trifluoroacetate salt] the value was 100 nM. On to `O=C(Cn1cc(Cl)c2ncc(-c3cncc(C(F)(F)F)c3)cc21)NC1CC1` [Example 244, 2-[3-Chloro-6-[5-(trifluoromethyl)-3-pyridyl]pyrrolo[3,2-b]pyridin-1-yl]-N-cyclopropyl-acetamide trifluoroacetate salt], for which the IC50 was 631 nM. `O=C(Cn1cc(Cl)c2ncc(-c3cccc(C(F)(F)F)n3)cc21)N1CCC1` [Example 245, 1-(Azetidin-1-yl)-2-[3-chloro-6-[6-(trifluoromethyl)-2-pyridyl]pyrrolo[3,2-b]pyridin-1-yl]ethanone]: the IC50 is 398 nM. Consider `O=C(Cn1cc(Cl)c2ncc(-c3cccc(C(F)(F)F)n3)cc21)NC1CC1` [Example 246, 2-[3-Chloro-6-[6-(trifluoromethyl)-2-pyridyl]pyrrolo[3,2-b]pyridin-1-yl]-N-cyclopropyl-acetamide], for which the IC50 is 100 nM. For `O=C(Cn1cc(Cl)c2ncc(-c3cccc(C(F)(F)F)n3)cc21)N1CC(F)C1` [Example 247, 2-[3-Chloro-6-[6-(trifluoromethyl)-2-pyridyl]pyrrolo[3,2-b]pyridin-1-yl]-1-(3-fluoroazetidin-1-yl)ethanone] the value was 316 nM; for `O=C(Cn1ccc2ncc(-c3cc(F)c(F)c(F)c3)cc21)NC1CC1` [Example 248, N-Cyclopropyl-2-[6-(3,4,5-trifluorophenyl)pyrrolo[3,2-b]pyridin-1-yl]acetamide], 63.1 nM. `O=C(Cn1ccc2ncc(-c3ccc(F)c(F)c3F)cc21)NC1CC1` [Example 249, N-Cyclopropyl-2-[6-(2,3,4-trifluorophenyl)pyrrolo[3,2-b]pyridin-1-yl]acetamide]: the IC50 is 79.4 nM. Turning to `O=C(Cn1ccc2ncc(-c3cccc(C(F)F)c3)cc21)NC1CC1` [Example 250, N-Cyclopropyl-2-[6-[3-(difluoromethyl)phenyl]pyrrolo[3,2-b]pyridin-1-yl]acetamide], the IC50 is 251 nM. In the case of `O=C(Cn1ccc2ncc(-c3ccc(F)cc3)cc21)NCc1ccccc1` [Example 251, N-Benzyl-2-[6-(4-fluorophenyl)pyrrolo[3,2-b]pyridin-1-yl]acetamide], the IC50 is 50.1 nM. In the case of `O=C(Cn1ccc2ncc(-c3ccc(F)cc3)cc21)NCCO` [Example 253, 2-[6-(4-Fluorophenyl)pyrrolo[3,2-b]pyridin-1-yl]-N-(2-hydroxyethyl)acetamide], the IC50 was 79.4 nM. As for `COCCNC(=O)Cn1ccc2ncc(-c3ccc(F)cc3)cc21` [Example 254, 2-[6-(4-Fluorophenyl)pyrrolo[3,2-b]pyridin-1-yl]-N-(2-methoxyethyl)acetamide], the IC50 was 1260 nM. Take `O=C(Cn1ccc2ncc(-c3cccc(C(F)(F)F)c3F)cc21)N1CC(F)(F)C1` [Example 255, 1-(3,3-Difluoroazetidin-1-yl)-2-[6-[2-fluoro-3-(trifluoromethyl)phenyl]pyrrolo[3,2-b]pyridin-1-yl]ethanone trifluoroacetate salt]: the IC50 was 3980 nM. With `O=C(Cn1ccc2ncc(-c3cccc(F)c3)cc21)N1CC(F)(F)C1` [Example 256, 1-(3,3-Difluoroazetidin-1-yl)-2-[6-(3-fluorophenyl)pyrrolo[3,2-b]pyridin-1-yl]ethanone trifluoroacetate salt], the IC50 is 79.4 nM.

As to `O=C(Cn1ccc2ncc(-c3ccccc3)cc21)N1CC(F)(F)C1` [Example 257, 1-(3,3-Difluoroazetidin-1-yl)-2-(6-phenylpyrrolo[3,2-b]pyridin-1-yl)ethanone trifluoroacetate salt], the IC50 was 126 nM. Under `CCc1cccc(-c2cnc3ccn(CC(=O)N4CC(F)(F)C4)c3c2)c1` [Example 258, 1-(3,3-Difluoroazetidin-1-yl)-2-[6-(3-ethylphenyl)pyrrolo[3,2-b]pyridin-1-yl]ethanone trifluoroacetate salt] stands 200 nM; under `Cc1cc(-c2cnc3ccn(CC(=O)N4CC(F)(F)C4)c3c2)ccc1F` [Example 259, 1-(3,3-Difluoroazetidin-1-yl)-2-[6-(4-fluoro-3-methyl-phenyl)pyrrolo[3,2-b]pyridin-1-yl]ethanone trifluoroacetate salt], 31.6 nM. As to `O=C(Cn1ccc2ncc(-c3cccc(C(F)(F)F)c3)cc21)N1CC(F)(F)C1` [Example 260, 1-(3,3-Difluoroazetidin-1-yl)-2-[6-[3-(trifluoromethyl)phenyl]pyrrolo[3,2-b]pyridin-1-yl]ethanone trifluoroacetate salt], the IC50 was 39.8 nM. Under `Cc1cc(F)ccc1-c1cnc2ccn(CC(=O)N3CC(F)(F)C3)c2c1` [Example 261, 1-(3,3-Difluoroazetidin-1-yl)-2-[6-(4-fluoro-2-methyl-phenyl)pyrrolo[3,2-b]pyridin-1-yl]ethanone trifluoroacetate salt] stands 50.1 nM. Under `O=C(Cn1ccc2ncc(-c3ccc(F)c(C(F)(F)F)c3)cc21)N1CC(F)C1` [Example 262, 1-(3-Fluoroazetidin-1-yl)-2-[6-[4-fluoro-3-(trifluoromethyl)phenyl]pyrrolo[3,2-b]pyridin-1-yl]ethanone trifluoroacetate salt] stands 100 nM; under `O=C(Cn1ccc2ncc(-c3cccc(F)c3)cc21)N1CC(F)C1` [Example 263, 1-(3-Fluoroazetidin-1-yl)-2-[6-(3-fluorophenyl)pyrrolo[3,2-b]pyridin-1-yl]ethanone trifluoroacetate salt], 158 nM. Regarding `Cc1cc(F)ccc1-c1cnc2ccn(CC(=O)N3CC(F)C3)c2c1` [Example 264, 1-(3-Fluoroazetidin-1-yl)-2-[6-(4-fluoro-2-methyl-phenyl)pyrrolo[3,2-b]pyridin-1-yl]ethanone trifluoroacetate salt], the IC50 was 63.1 nM. Turning to `O=C(Cn1ccc2ncc(-c3cccc(C(F)(F)F)c3)cc21)N1CC(F)C1` [Example 265, 1-(3-Fluoroazetidin-1-yl)-2-[6-[3-(trifluoromethyl)phenyl]pyrrolo[3,2-b]pyridin-1-yl]ethanone trifluoroacetate salt], the IC50 was 100 nM. Take `Cc1cccc(-c2cnc3ccn(CC(=O)N4CC(F)C4)c3c2)c1` [Example 266, 1-(3-Fluoroazetidin-1-yl)-2-[6-(m-tolyl)pyrrolo[3,2-b]pyridin-1-yl]ethanone trifluoroacetate salt]: the IC50 was 126 nM.

As to `O=C(Cn1ccc2ncc(-c3cccc(C(F)(F)F)c3F)cc21)N1CC(F)C1` [Example 267, 1-(3-Fluoroazetidin-1-yl)-2-[6-[2-fluoro-3-(trifluoromethyl)phenyl]pyrrolo[3,2-b]pyridin-1-yl]ethanone trifluoroacetate salt], the IC50 was 39.8 nM. For `CCc1cccc(-c2cnc3ccn(CC(=O)N4CC(F)C4)c3c2)c1` [Example 268, 2-[6-(3-Ethylphenyl)pyrrolo[3,2-b]pyridin-1-yl]-1-(3-fluoroazetidin-1-yl)ethanone trifluoroacetate salt] the value was 79.4 nM.
